Test results: patent US10208081B2, “Bile acid derivatives as FXR/TGR5 agonists and methods of use thereof” (Enanta Pharmaceuticals, Inc., priority 2014, dated 2019)

Target: human FXR (NR1H4) (Homo sapiens (Human), UniProt Q96RI1)
Experiment: Human FXR (NR1H4) Assay (Gal4 promoter driven luciferase reporter, Indigo Bioscience kit IB00601)
Type: cell-based
Conditions: for Efficacy (%): efficacy normalized to CDCA set as 100%; for EC50: potency ranges
In short: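 CHO reporter cells expressing human FXR with Gal4-driven, FXR-responsive luciferase treated with compound doses (0.2% DMSO) for 22 hours at 37° C. Luciferase luminescence then measured as surrogate of FXR activation for potency and efficacy.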

Chain of human FXR (NR1H4) (Q96RI1 whole entry, the tested form may be a part): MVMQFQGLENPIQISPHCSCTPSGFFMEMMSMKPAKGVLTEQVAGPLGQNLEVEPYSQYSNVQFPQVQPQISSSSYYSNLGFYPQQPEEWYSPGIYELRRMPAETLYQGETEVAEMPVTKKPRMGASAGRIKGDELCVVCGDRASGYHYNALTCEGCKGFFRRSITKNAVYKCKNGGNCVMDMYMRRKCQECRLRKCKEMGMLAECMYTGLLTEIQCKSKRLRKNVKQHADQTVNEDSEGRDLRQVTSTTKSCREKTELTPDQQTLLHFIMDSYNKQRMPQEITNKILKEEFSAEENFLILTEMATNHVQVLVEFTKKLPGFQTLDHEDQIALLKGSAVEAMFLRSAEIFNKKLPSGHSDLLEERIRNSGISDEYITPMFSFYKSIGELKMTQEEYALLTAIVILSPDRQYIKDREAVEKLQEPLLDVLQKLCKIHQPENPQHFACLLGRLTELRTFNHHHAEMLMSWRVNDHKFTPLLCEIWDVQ

SMILES	Efficacy (%)	EC50
CC[C@H]1[C@@H](O)[C@@H]2[C@H](CC[C@]3(C)[C@@H]([C@H](C)CCNC(=O)NS(=O)(=O)c4ccc(Cl)cc4)CC[C@@H]23)[C@@]2(C)CC[C@@H](O)C[C@@H]12 [Example 25]	357%	< 100 nM
CC[C@H]1[C@@H](O)[C@@H]2[C@H](CC[C@]3(C)[C@@H]([C@H](C)CCNC(=O)NS(=O)(=O)N4CCN(C(=O)C(C)(C)C)CC4)CC[C@@H]23)[C@@]2(C)CC[C@@H](O)C[C@@H]12 [Example 85]	324%	100 to 1000 nM
CC[C@H]1[C@@H](O)[C@@H]2[C@H](CC[C@]3(C)[C@@H]([C@H](C)CCN(C)C(=O)NS(=O)(=O)c4ccc(C(C)(C)C)cc4)CC[C@@H]23)[C@@]2(C)CC[C@@H](O)C[C@@H]12 [Example 26]	378%	100 to 1000 nM
CC[C@H]1[C@@H](O)[C@@H]2[C@H](CC[C@]3(C)[C@@H]([C@H](C)CCNC(=O)NS(=O)(=O)Nc4ccc(C(C)(C)C)cc4)CC[C@@H]23)[C@@]2(C)CC[C@@H](O)C[C@@H]12 [Example 105]	322%	100 to 1000 nM
CC[C@H]1[C@@H](O)[C@@H]2[C@H](CC[C@]3(C)[C@@H]([C@H](C)CCNC(=O)NS(=O)(=O)N4C[C@H](C)C[C@H](C)C4)CC[C@@H]23)[C@@]2(C)CC[C@@H](O)C[C@@H]12 [Example 97]	308%	< 100 nM
CC[C@H]1[C@@H](O)[C@@H]2[C@H](CC[C@]3(C)[C@@H]([C@H](C)CCNC(=O)NS(=O)(=O)c4ccc5c(c4)CCN5C(C)=O)CC[C@@H]23)[C@@]2(C)CC[C@@H](O)C[C@@H]12 [Example 62]	476%	1000 to 10000 nM
CC[C@H]1[C@@H](O)[C@@H]2[C@H](CC[C@]3(C)[C@@H]([C@H](C)CCNC(=O)NS(=O)(=O)N4CCCC4)CC[C@@H]23)[C@@]2(C)CC[C@@H](O)C[C@@H]12 [Example 48]	420%	< 100 nM
CC[C@H]1[C@@H](O)[C@@H]2[C@H](CC[C@]3(C)[C@@H]([C@H](C)CCNC(=O)NS(=O)(=O)N4C(C)CCC4C)CC[C@@H]23)[C@@]2(C)CC[C@@H](O)C[C@@H]12 (some centres unmarked) [Example 98]	344%	< 100 nM
CC[C@H]1[C@@H](O)[C@@H]2[C@H](CC[C@]3(C)C([C@H](C)CCNS(=O)(=O)c4ccccc4)CC[C@@H]23)[C@@]2(C)CC[C@@H](O)C[C@@H]12 (some centres unmarked) [Example 130]	146%	1000 to 10000 nM
CC[C@H]1[C@@H](O)[C@@H]2[C@H](CC[C@]3(C)[C@@H]([C@H](C)CCNC(=O)NS(=O)(=O)c4ccc(C(C)(C)C(=O)OC)cc4)CC[C@@H]23)[C@@]2(C)CC[C@@H](O)C[C@@H]12 [Example 70]	434%	< 100 nM
CC[C@H]1[C@@H](O)[C@@H]2[C@H](CC[C@]3(C)[C@@H]([C@H](C)CNC(=O)NS(=O)(=O)c4ccc(C5CCCCC5)cc4)CC[C@@H]23)[C@@]2(C)CC[C@@H](O)C[C@@H]12 [Example 113]	366%	< 100 nM
CCCCS(=O)(=O)NC(=O)NCC[C@@H](C)[C@H]1CC[C@H]2[C@@H]3[C@H](O)[C@H](CC)[C@@H]4C[C@H](O)CC[C@]4(C)[C@H]3CC[C@]12C [Example 90]	407%	< 100 nM
C[C@H](CCNC(=O)NS(=O)(=O)c1ccc(C(C)(C)C)cc1)[C@H]1CC[C@H]2[C@@H]3[C@H](O)C[C@@H]4C[C@H](O)CC[C@]4(C)[C@H]3CC[C@]12C [Example 110]	320%	1000 to 10000 nM
CC[C@H]1[C@@H](O)[C@@H]2[C@H](CC[C@]3(C)[C@@H]([C@H](C)CCNC(=O)NS(=O)(=O)C(C)(C)CO)CC[C@@H]23)[C@@]2(C)CC[C@@H](O)C[C@@H]12 [Example 122]	121%	1000 to 10000 nM
CC[C@H]1[C@@H](O)[C@@H]2[C@H](CC[C@]3(C)[C@@H]([C@H](C)CCNC(=O)NS(=O)(=O)c4ccc(C5(C(F)(F)F)CC5)cc4)CC[C@@H]23)[C@@]2(C)CC[C@@H](O)C[C@@H]12 [Example 106]	281%	< 100 nM
CC[C@H]1[C@@H](O)[C@@H]2[C@H](CC[C@]3(C)[C@@H]([C@H](C)CCNC(=O)NS(=O)(=O)c4ccncc4)CC[C@@H]23)[C@@]2(C)CC[C@@H](O)C[C@@H]12 [Example 49]	236%	1000 to 10000 nM

SMILES	Efficacy (%)	EC50
CC[C@H]1[C@@H](O)[C@@H]2[C@H](CC[C@]3(C)[C@@H]([C@H](C)CCNC(=O)NS(=O)(=O)Cc4ccccc4)CC[C@@H]23)[C@@]2(C)CC[C@@H](O)C[C@@H]12 [Example 63]	452%	100 to 1000 nM
CC[C@H]1[C@@H](O)[C@@H]2[C@H](CC[C@]3(C)[C@@H]([C@H](C)CCNC(=O)NS(=O)(=O)c4cccc(OC(F)(F)F)c4)CC[C@@H]23)[C@@]2(C)CC[C@@H](O)C[C@@H]12 [Example 50]	309%	< 100 nM
CC[C@H]1[C@@H](O)[C@@H]2[C@H](CC[C@]3(C)[C@@H]([C@H](C)CCNS(=O)(=O)C(C)(C)C)CC[C@@H]23)[C@@]2(C)CC[C@@H](O)C[C@@H]12 [Example 139]	138%	1000 to 10000 nM
CC[C@H]1[C@@H](O)[C@@H]2[C@H](CC[C@]3(C)[C@@H]([C@H](C)CCNC(=O)NS(=O)(=O)C4CCCCC4)CC[C@@H]23)[C@@]2(C)CC[C@@H](O)C[C@@H]12 [Example 22]	477%	< 100 nM
CC[C@H]1[C@@H](O)[C@@H]2[C@H](CC[C@]3(C)[C@@H]([C@H](C)CCNC(=O)NS(=O)(=O)c4ccc5c(c4)CCC5)CC[C@@H]23)[C@@]2(C)CC[C@@H](O)C[C@@H]12 [Example 55]	271%	< 100 nM
CC[C@H]1[C@@H](O)[C@@H]2[C@H](CC[C@]3(C)[C@@H]([C@H](C)CCNC(=O)NS(=O)(=O)c4cccc(F)c4)CC[C@@H]23)[C@@]2(C)CC[C@@H](O)C[C@@H]12 [Example 51]	319%	< 100 nM
CC[C@H]1[C@@H](O)[C@@H]2[C@H](CC[C@]3(C)[C@@H]([C@H](C)CCNC(=O)NS(=O)(=O)N4C[C@@H](C)O[C@H](C)C4)CC[C@@H]23)[C@@]2(C)CC[C@@H](O)C[C@@H]12 [Example 82]	321%	< 100 nM
CC[C@H]1[C@@H](O)[C@@H]2[C@H](CC[C@]3(C)[C@@H]([C@H](C)CCNC(=O)NS(=O)(=O)N4CC(C)C(C)C4)CC[C@@H]23)[C@@]2(C)CC[C@@H](O)C[C@@H]12 (some centres unmarked) [Example 99]	266%	< 100 nM
CC[C@H]1[C@@H](O)[C@@H]2[C@H](CC[C@]3(C)[C@@H]([C@H](C)CCCNC(=O)NS(=O)(=O)c4ccc(OC(F)(F)F)cc4)CC[C@@H]23)[C@@]2(C)CC[C@@H](O)C[C@@H]12 [Example 18]	319%	< 100 nM
CC[C@H]1[C@@H](O)[C@@H]2[C@H](CC[C@]3(C)[C@@H]([C@H](C)CCNC(=O)NS(=O)(=O)c4ccc(C(C)(C)C)s4)CC[C@@H]23)[C@@]2(C)CC[C@@H](O)C[C@@H]12 [Example 111]	314%	< 100 nM
CC[C@H]1[C@@H](O)[C@@H]2[C@H](CC[C@]3(C)[C@@H]([C@H](C)CCNC(=O)NS(=O)(=O)C4CC5CCC4C5)CC[C@@H]23)[C@@]2(C)CC[C@@H](O)C[C@@H]12 (some centres unmarked) [Example 76]	290%	< 100 nM
CC[C@H]1[C@@H](O)[C@@H]2[C@H](CC[C@]3(C)[C@@H]([C@H](C)CCNC(=O)NS(C)(=O)=O)CC[C@@H]23)[C@@]2(C)CC[C@@H](O)C[C@@H]12 [Example 6]	269%	100 to 1000 nM
CC[C@H]1[C@@H](O)[C@@H]2[C@H](CC[C@]3(C)[C@@H]([C@H](C)CCNS(=O)(=O)c4ccc(C(C)(C)C)s4)CC[C@@H]23)[C@@]2(C)CC[C@@H](O)C[C@@H]12 [Example 134]	19%	–
CC[C@H]1[C@@H](O)[C@@H]2[C@H](CC[C@]3(C)[C@@H]([C@H](C)CNC(=O)NS(=O)(=O)c4ccc5ccccc5c4)CC[C@@H]23)[C@@]2(C)CC[C@@H](O)C[C@@H]12 [Example 32]	309%	< 100 nM
CC[C@H]1[C@@H](O)[C@@H]2[C@H](CC[C@]3(C)[C@@H]([C@H](C)CCNC(=O)NS(=O)(=O)N4CCC(C(C)(C)C)CC4)CC[C@@H]23)[C@@]2(C)CC[C@@H](O)C[C@@H]12 [Example 67]	351%	< 100 nM
CC[C@H]1[C@@H](O)[C@@H]2[C@H](CC[C@]3(C)[C@@H]([C@H](C)CNS(=O)(=O)C(C)(C)C)CC[C@@H]23)[C@@]2(C)CC[C@@H](O)C[C@@H]12 [Example 143]	6%	–
